Data set [1] relates to MCF7. Nature of the data set: Cytotoxicity against human MCF7 cells assessed as reduction in cell viability incubated for 48 hrs by MTT assay. Particulars: MCF7, 48 h. In kind it is functional, cell-based.
In data set [2] the test system is A549. Nature of the data set: Cytotoxicity against human A549 cells assessed as reduction in cell viability incubated for 48 hrs by MTT assay. The note with it: A549, 48 h. In kind it is functional, cell-based.
Data set [3] relates to MGC-803. As to the kind of experiment: Cytotoxicity against human MGC803 cells assessed as reduction in cell viability incubated for 48 hrs by MTT assay. In kind it is functional, cell-based. The note with it: MGC-803, 48 h.
Data set [4] relates to HeLa. Nature of the data set: Cytotoxicity against human HeLa cells assessed as reduction in cell viability incubated for 48 hrs by MTT assay. In kind it is functional, cell-based.
The subject of data set [5] is HeLa. As to the kind of experiment: Cell cycle arrest in human HeLa cells assessed as accumulation at G2 phase at 5 uM incubated for 12 hrs by propidium iodide staining based flow cytometry (reference value: 7%). In kind it is functional.
For data set [6], the system named is HeLa. As to the kind of experiment: Cell cycle arrest in human HeLa cells assessed as accumulation at S phase at 5 uM incubated for 12 hrs by propidium iodide staining based flow cytometry (reference value: 27.8%). In kind it is functional.
Data set [7] relates to Calf thymus DNA. Nature of the data set: Binding affinity to calf thymus DNA assessed as induction of ICD signal changes at 8 uM to 40 uM by CD spectroscopy. In kind it is nucleic-acid assay. The note with it: Bos taurus.
Data set [8] deals with HeLa. As to the kind of experiment: Cell cycle arrest in human HeLa cells assessed as accumulation at G1 phase at 2.5 uM incubated for 12 hrs by propidium iodide staining based flow cytometry (reference value: 65.2%). In kind it is functional.
Data set [9] can be described thus: Drug accumulation in lysosome of human HeLa cells at 5 uM incubated for 1 hr by lysososmal tracker DND-99 based confocal microscopy. In kind it is ADME, subcellular.
Data set [10] has as its system HeLa. As to the kind of experiment: Cell cycle arrest in human HeLa cells assessed as accumulation at G1 phase at 5 uM incubated for 12 hrs by propidium iodide staining based flow cytometry (reference value: 65.2%). In kind it is functional.
The subject of data set [11] is Calf thymus DNA. As to the kind of experiment: Binding affinity to calf thymus DNA at 1 x 10^-5 M by UV-Visible spectroscopy. In kind it is nucleic-acid assay. Particulars: Bos taurus.
The subject of data set [12] is Calf thymus DNA. Nature of the data set: Binding affinity to calf thymus DNA assessed as reduction in compound self absorption intensity at 1 x 10^-5 M by UV-Visible spectroscopy. In kind it is nucleic-acid assay. The note with it: Bos taurus.
Data set [13] concerns Calf thymus DNA. As to the kind of experiment: Binding affinity to calf thymus DNA assessed as increase in compound fluorescence intensity at 1 x 10^-5 M by fluorescence spectroscopy. In kind it is nucleic-acid assay. The note with it: Bos taurus.
In data set [14] the test system is Calf thymus DNA. Nature of the data set: Binding affinity to calf thymus DNA assessed as induction of maximum emission band shift at 1 x 10^-5 M by fluorescence spectroscopy. Particulars: Bos taurus. In kind it is nucleic-acid assay.
The test system of data set [15] is Calf thymus DNA. As to the kind of experiment: Binding affinity to calf thymus DNA assessed as increase in intensity of positive band at 275 nm at 8 uM to 40 uM by CD spectroscopy. In kind it is nucleic-acid assay. Particulars: Bos taurus.
The subject of data set [16] is HeLa. As to the kind of experiment: Cell cycle arrest in human HeLa cells assessed as accumulation at G2 phase at 7.5 uM incubated for 12 hrs by propidium iodide staining based flow cytometry (reference value: 7%). In kind it is functional.
The test system of data set [17] is HeLa. Nature of the data set: Cell cycle arrest in human HeLa cells assessed as accumulation at G1 phase at 7.5 uM incubated for 12 hrs by propidium iodide staining based flow cytometry (reference value: 65.2%). In kind it is functional.
The test system of data set [18] is HeLa. As to the kind of experiment: Cell cycle arrest in human HeLa cells assessed as accumulation at S phase at 7.5 uM incubated for 12 hrs by propidium iodide staining based flow cytometry (reference value: 27.8%). In kind it is functional.
Data set [19] deals with Calf thymus DNA. As to the kind of experiment: Binding affinity to calf thymus DNA assessed as change in melting temperature at 5 uM. In kind it is nucleic-acid assay. The note with it: Bos taurus.
Data set [20] concerns HeLa. Nature of the data set: Cell cycle arrest in human HeLa cells assessed as accumulation at G2 phase at 2.5 uM incubated for 12 hrs by propidium iodide staining based flow cytometry (reference value: 7%). In kind it is functional.
Data set [21] relates to HeLa. As to the kind of experiment: Cell cycle arrest in human HeLa cells assessed as accumulation at S phase at 2.5 uM incubated for 12 hrs by propidium iodide staining based flow cytometry (reference value: 27.8%). In kind it is functional.
For data set [22], the system named is Calf thymus DNA. As to the kind of experiment: Binding affinity to calf thymus DNA assessed as induction of bathochromic shift of maximum absorption peaks at 1 x 10^-5 M by UV-Visible spectroscopy (reference value: 426 nanometer). In kind it is nucleic-acid assay. Particulars: Bos taurus.
The test system of data set [23] is Calf thymus DNA. As to the kind of experiment: Binding affinity to calf thymus DNA assessed as increase in […] shift at 1 x 10^-5 M by fluorescence spectroscopy (reference value: 542 nanometer). In kind it is nucleic-acid assay. Particulars: Bos taurus.
Data set [24] deals with Calf thymus DNA. Nature of the data set: Binding affinity to calf thymus DNA assessed as increase in compound fluorescence intensity at 1 x 10^-5 M up to 1.4 x 10^-4M DNA by fluorescence spectroscopy. The note with it: Bos taurus. In kind it is nucleic-acid assay.

Activity calls are given as the source filed them. No cut-off for these calls is given here.

In the case of `O=C1c2cccc3c(N4CCC[C@H]4CO)ccc(c23)C(=O)N1CCCNCCNCCCN1C(=O)c2cccc3c(N4CCC[C@H]4CO)ccc(c23)C1=O`, the IC50 in [1] came out at 147 µM; in data set [2], 472 µM; in data set [3] it was 35.1 µM; in data set [4] it was 85.2 µM.

Regarding `Cl.Cl.Cl.Cl.O=C1c2cccc3c(N4CCC(O)CC4)ccc(c23)C(=O)N1CCCNCCNCCCN1C(=O)c2cccc3c(N4CCC(O)CC4)ccc(c23)C1=O`, the Activity worked out at 9.9% in [5]; 45.2% in data set [6]; 47.5% in data set [8]; 44.9% in data set [10]; 5.3% in [16]; 44.3% in data set [17]. For the same molecule, the Activity in data set [18] turned out to be 50.4%; in [20], 11.7%; in [21] it was 40.8%; in data set [22] it was 445 nm. The IC50 in data set [1] amounted to 37.1 µM; in [2], 46.2 µM; in data set [3], 0.6 µM; in data set [4], 2.89 µM. For the same molecule, the outcome in data set [7], in data set [12], in data set [13] and in [15] was Active. The Drug uptake entry in data set [9] was “Active”. Further, in data set [11], the K was determined as 1.8 ×10⁵ /M. Moreover, the outcome in data set [14] was inactive. Also, in data set [19], the ΔTm turned out to be 8.2 °C.

Take `O=C1c2cccc3c(N4CCC[C@@H]4CO)ccc(c23)C(=O)N1CCCNCCNCCCN1C(=O)c2cccc3c(N4CCC[C@@H]4CO)ccc(c23)C1=O`: the IC50 in [1] is 93.5 µM; in data set [2], 72.6 µM; in data set [3] it was 6.41 µM; in data set [4] it was 89.2 µM.

Turning to `O=C1c2cccc3c(N4CCC(CO)CC4)ccc(c23)C(=O)N1CCCNCCNCCCN1C(=O)c2cccc3c(N4CCC(CO)CC4)ccc(c23)C1=O`, the IC50 amounted to 22.7 µM in [1], 14 µM in data set [2], 2.03 µM in data set [3] and 4.03 µM in data set [4].

In the case of `O=C1c2cccc3c(N4CC[C@@H](O)C4)ccc(c23)C(=O)N1CCCNCCNCCCN1C(=O)c2cccc3c(N4CC[C@@H](O)C4)ccc(c23)C1=O`, the IC50 in data set [1] was found to be 74.6 µM; in data set [2], 23 µM; in data set [3], 9.41 µM; in [4] it was 45.4 µM.

Consider `CN(C)CCN1C(=O)c2cccc3cc(N)cc(c23)C1=O` [AMONAFIDE], for which the IC50 in data set [1] turned out to be 6.79 µM; in [2], 2 µM; in data set [3], 3.23 µM; in [4], 3.41 µM.

With `Cl.Cl.Cl.Cl.O=C1c2cccc3c(N4CCN(CCO)CC4)ccc(c23)C(=O)N1CCCNCCNCCCN1C(=O)c2cccc3c(N4CCN(CCO)CC4)ccc(c23)C1=O`, the Activity came to 4.3% in [5]; 49.7% in [6]; 528 nm in data set [23]; 48.9% in data set [8]; 46% in data set [10]; 3.7% in data set [16]. The Activity in data set [17] was found to be 42.6%; in data set [18], 53.87%; in data set [20], 10.9%; in [21] it was 40.2%. For the same molecule, the IC50 in data set [1] was 20 µM; in [2] it was 2.59 µM; in data set [3], 1.6 µM; in [4] it was 2.73 µM. Moreover, the outcome in [7], in data set [24], in data set [12] and in data set [15] was Active. In addition, in [9], the Drug uptake entry is recorded as “Active”. Further, in [11], the K was 2.6 ×10⁵ /M. Further, the ΔTm in [19] was 14.3 °C. The result in data set [22] was inactive.

On to `O=C1c2cccc3c(N4CCC(CCO)CC4)ccc(c23)C(=O)N1CCCNCCNCCCN1C(=O)c2cccc3c(N4CCC(CCO)CC4)ccc(c23)C1=O`, for which the IC50 amounted to 11.1 µM in [1], 43.5 µM in data set [2], 90.4 µM in data set [3] and 6.88 µM in data set [4].

Turning to `O=C1c2cccc3c(N4CC[C@H](O)C4)ccc(c23)C(=O)N1CCCNCCNCCCN1C(=O)c2cccc3c(N4CC[C@H](O)C4)ccc(c23)C1=O`, the IC50 was 142 µM in [1], 83.6 µM in data set [2], 5.96 µM in [3] and 35.4 µM in data set [4].

The values above are taken from ChEMBL document CHEMBL4184215, “Lysosomes-targeting imaging and anticancer properties of novel bis-naphthalimide derivatives” (Bioorg Med Chem Lett, 2018).
